{
  "source": "paper PMC9563204",
  "about": "“Mass Spectrometry and Machine Learning Reveal Determinants of Client Recognition by Antiamyloid Chaperones” (Molecular & Cellular Proteomics : MCP, 2022)",
  "target": "TTR (transthyretin) (Homo sapiens, UniProt P02766)",
  "test": "native MS of Aβ([…]) binding to TTR with and without tafamidis",
  "conditions": "TTR tetramer coincubated with Aβ(12–28) and tafamidis, overnight, room temperature; indirect read-out (tetramer stabilization)",
  "data": [
    {"smiles": "O=C(O)c1ccc2nc(-c3cc(Cl)cc(Cl)c3)oc2c1", "note": "[tafamidis]", "values": [
      {"measurement": "native MS of Aβ(12-28) binding to TTR with and without tafamidis", "value": "In the presence of tafamidis, we observed a clear decrease in Aβ binding to TTR"}
    ]}
  ]
}
